From patent publication US12421243B2, “Pharmaceutically effective compounds inhibiting selectively the myosin 2 isoforms” (PRINTNET KERESKEDELMI ÉS SZOLGÁLTATÓ KFT., priority 2018, dated 2025)

Experiments:
[1] = target: isolated smooth muscle myosin (UniProt P10587); type: biochemical, chamois; conditions: concentration required for semi-maximal inhibition of ATPase
Text: (ii) the concentration required for semi-maximal inhibition.

[2] = target: T1, isolated porcine cardiac ventricular myocardium (cardiac) (Sus scrofa, UniProt P79293); experiment: actomyosin steady state ATPase measurement, cardiac myosin; type: biochemical; conditions: for IC50: concentration required for semi-maximal inhibition of ATPase; for % inhibition. complete cardiac: maximum value of inhibition of ATPase activity; for inhibition at 5 µM: read-out: % inhibition at 5 μM (or 10 μM if racemate) cardiac, 5 μM (10 μM if racemate); for inhibition at 5 µM / inhibition at 50 µM: ATPase activity; for inhibition at 50 µM: read-out: % inhibition at 50 μM (or 100 μM if racemate) cardiac, 50 μM (100 μM if racemate)
T1 construct: isolated porcine cardiac ventricular myocardium (cardiac); from tissue; host or cells: porcine cardiac ventricle
T1 sequence (P79293 whole entry): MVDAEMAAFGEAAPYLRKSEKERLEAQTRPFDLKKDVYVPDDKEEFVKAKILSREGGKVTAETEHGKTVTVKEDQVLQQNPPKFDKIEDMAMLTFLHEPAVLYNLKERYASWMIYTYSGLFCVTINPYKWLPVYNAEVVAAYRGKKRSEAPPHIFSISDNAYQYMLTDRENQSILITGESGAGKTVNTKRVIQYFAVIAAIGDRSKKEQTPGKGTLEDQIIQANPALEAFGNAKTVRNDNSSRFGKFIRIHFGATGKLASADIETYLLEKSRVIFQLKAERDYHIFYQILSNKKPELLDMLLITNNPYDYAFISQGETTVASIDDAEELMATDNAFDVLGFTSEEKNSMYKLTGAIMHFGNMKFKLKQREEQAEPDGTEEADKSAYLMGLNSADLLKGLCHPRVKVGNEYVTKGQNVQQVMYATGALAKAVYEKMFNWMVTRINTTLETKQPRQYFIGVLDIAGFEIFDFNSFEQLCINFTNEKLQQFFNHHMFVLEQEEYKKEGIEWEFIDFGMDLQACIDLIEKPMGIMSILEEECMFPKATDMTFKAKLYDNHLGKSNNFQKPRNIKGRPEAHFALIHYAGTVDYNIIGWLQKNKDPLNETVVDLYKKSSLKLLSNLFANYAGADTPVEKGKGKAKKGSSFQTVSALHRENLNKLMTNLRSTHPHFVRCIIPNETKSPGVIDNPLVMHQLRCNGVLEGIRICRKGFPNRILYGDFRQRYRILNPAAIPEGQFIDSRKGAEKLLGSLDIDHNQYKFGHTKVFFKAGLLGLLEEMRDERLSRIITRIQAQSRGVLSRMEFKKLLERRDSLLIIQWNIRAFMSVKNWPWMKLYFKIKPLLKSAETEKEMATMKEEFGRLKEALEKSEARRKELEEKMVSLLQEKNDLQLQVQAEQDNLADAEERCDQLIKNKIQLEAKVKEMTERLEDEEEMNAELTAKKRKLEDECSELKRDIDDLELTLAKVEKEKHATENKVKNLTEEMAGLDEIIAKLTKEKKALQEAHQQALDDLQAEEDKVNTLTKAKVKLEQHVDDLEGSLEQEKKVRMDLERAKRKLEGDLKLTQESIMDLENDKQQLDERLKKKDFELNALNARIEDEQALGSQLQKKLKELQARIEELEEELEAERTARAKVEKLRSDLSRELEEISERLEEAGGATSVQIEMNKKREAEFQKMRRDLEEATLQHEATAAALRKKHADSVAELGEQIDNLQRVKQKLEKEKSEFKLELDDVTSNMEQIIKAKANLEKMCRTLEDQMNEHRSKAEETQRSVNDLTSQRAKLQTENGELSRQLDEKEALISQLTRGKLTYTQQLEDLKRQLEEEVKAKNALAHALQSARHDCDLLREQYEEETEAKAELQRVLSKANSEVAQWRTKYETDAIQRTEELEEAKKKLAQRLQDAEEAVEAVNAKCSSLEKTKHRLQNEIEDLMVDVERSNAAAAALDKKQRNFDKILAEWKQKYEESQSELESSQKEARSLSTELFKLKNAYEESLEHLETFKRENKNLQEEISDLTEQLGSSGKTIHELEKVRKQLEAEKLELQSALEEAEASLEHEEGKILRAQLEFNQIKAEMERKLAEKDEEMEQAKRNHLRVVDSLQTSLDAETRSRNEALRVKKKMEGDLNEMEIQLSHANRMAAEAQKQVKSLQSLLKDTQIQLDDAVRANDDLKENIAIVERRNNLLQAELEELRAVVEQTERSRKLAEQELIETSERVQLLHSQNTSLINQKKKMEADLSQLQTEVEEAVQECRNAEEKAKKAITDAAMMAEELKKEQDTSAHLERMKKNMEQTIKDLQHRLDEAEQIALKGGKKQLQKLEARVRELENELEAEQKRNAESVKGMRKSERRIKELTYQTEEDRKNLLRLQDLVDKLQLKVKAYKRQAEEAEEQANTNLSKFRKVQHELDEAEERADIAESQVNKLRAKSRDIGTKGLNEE
Text: (§1) […]; (ii) the concentration required for semi-maximal inhibition.

[3] = target: recombinant human non-muscle myosin 2 NM2C (Homo sapiens, UniProt Q7Z406); experiment: actomyosin steady state ATPase measurement, NM2C; type: biochemical; conditions: for IC50: concentration required for semi-maximal inhibition of ATPase; for % inhibition. complete NM2C: maximum value of inhibition of ATPase activity; for inhibition at 5 µM: read-out: % inhibition at 5 μM (or 10 μM if racemate) NM2C, 5 μM (10 μM if racemate); for inhibition at 5 µM / inhibition at 50 µM: ATPase activity; for inhibition at 50 µM: read-out: % inhibition at 50 μM (or 100 μM if racemate) NM2C, 50 μM (100 μM if racemate)
Chain of recombinant human non-muscle myosin 2 NM2C (Q7Z406 whole entry): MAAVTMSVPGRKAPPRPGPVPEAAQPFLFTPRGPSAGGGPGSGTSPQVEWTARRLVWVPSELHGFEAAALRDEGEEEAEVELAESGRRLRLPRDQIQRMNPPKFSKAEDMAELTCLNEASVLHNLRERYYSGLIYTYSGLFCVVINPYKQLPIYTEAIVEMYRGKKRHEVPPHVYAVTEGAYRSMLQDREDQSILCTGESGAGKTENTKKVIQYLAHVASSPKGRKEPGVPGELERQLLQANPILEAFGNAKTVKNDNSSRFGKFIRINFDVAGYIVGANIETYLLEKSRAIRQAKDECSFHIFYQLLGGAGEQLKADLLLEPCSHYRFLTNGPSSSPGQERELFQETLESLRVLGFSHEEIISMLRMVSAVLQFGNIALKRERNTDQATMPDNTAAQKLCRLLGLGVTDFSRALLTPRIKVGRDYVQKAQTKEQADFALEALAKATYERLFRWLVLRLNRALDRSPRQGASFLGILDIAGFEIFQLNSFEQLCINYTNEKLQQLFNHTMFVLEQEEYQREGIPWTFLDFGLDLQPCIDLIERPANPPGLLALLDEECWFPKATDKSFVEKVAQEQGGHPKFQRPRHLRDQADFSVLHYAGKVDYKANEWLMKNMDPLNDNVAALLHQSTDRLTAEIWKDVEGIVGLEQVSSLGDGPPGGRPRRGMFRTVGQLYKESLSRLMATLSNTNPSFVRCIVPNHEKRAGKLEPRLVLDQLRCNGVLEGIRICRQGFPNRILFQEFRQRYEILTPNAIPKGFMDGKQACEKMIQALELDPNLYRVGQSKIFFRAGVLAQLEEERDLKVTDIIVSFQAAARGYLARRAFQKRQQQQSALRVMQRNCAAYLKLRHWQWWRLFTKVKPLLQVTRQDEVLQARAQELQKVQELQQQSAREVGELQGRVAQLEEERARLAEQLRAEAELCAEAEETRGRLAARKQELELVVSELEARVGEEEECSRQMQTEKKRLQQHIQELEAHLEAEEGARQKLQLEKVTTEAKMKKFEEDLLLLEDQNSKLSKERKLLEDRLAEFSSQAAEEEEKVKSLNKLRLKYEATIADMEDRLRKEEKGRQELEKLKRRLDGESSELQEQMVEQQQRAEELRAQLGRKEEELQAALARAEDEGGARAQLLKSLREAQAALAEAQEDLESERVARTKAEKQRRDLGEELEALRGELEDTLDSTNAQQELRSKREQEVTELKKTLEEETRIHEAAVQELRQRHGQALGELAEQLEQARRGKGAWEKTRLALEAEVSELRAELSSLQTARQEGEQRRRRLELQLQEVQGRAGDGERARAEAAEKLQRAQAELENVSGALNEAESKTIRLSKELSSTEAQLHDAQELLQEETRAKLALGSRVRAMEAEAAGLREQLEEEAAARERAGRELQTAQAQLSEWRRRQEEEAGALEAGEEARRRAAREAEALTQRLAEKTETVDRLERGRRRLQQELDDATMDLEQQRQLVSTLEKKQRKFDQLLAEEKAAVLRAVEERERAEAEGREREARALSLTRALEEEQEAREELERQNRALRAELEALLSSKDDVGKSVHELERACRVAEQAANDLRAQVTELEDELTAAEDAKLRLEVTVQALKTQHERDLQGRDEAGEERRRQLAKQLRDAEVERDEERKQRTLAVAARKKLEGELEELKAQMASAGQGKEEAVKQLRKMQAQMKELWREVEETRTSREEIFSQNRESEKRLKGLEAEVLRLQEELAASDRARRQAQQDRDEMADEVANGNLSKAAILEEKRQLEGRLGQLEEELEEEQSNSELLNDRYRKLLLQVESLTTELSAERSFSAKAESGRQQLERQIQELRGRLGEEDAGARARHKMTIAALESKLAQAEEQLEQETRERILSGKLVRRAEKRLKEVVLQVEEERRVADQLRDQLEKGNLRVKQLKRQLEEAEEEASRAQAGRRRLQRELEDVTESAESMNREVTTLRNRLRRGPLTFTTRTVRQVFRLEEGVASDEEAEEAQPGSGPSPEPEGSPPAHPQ
Text: as §1

[4] = target: isolated smooth muscle myosin (UniProt P10587); type: biochemical, chamois; conditions: for % inhibition at 5 μM (or 10 μM if racemate) Smooth: 5 μM (10 μM if racemate); for % inhibition at 5 μM (or 10 μM if racemate) Smooth / % inhibition at 50 μM (or 100 μM if racemate) Smooth: ATPase activity; for % inhibition at 50 μM (or 100 μM if racemate) Smooth: 50 μM (100 μM if racemate); for % inhibition. complete Smooth: maximum value of inhibition of ATPase activity
[5] = system: isolated rabbit skeletal muscle myosin (skeletal); experiment: actomyosin steady state ATPase measurement, skeletal muscle myosin; type: biochemical; conditions: for % inhibition at 5 μM (or 10 μM if racemate) Skeletal: 5 μM (10 μM if racemate); for % inhibition at 5 μM (or 10 μM if racemate) Skeletal / % inhibition at 50 μM (or 100 μM if racemate) Skeletal: ATPase activity; for % inhibition at 50 μM (or 100 μM if racemate) Skeletal: 50 μM (100 μM if racemate); for IC50: concentration required for semi-maximal inhibition of ATPase; for Inhibition (%) skeletal: maximum inhibition, compounds in IC50 range 1-2 μM; for % inhibition. complete Skeletal: maximum value of inhibition of ATPase activity
Text: as §1

[6] = target: recombinant Dictyostelium miozin (Dictyostelium) (Dictyostelium discoideum, UniProt P08799); experiment: actomyosin steady state ATPase measurement, Dictyostelium myosin; type: biochemical; conditions: for IC50: concentration required for semi-maximal inhibition of ATPase, read-out: IC50 (μM) Dicty; for % inhibition. complete Dicty: maximum value of inhibition of ATPase activity; for inhibition at 5 µM: read-out: % inhibition at 5 μM (or 10 μM if racemate) Dicty; for inhibition at 50 µM: read-out: % inhibition at 50 μM (or 100 μM if racemate) Dicty
Text: as §1

SMILES	IC50 [1] [µM]	IC50 [2] [µM]	% inhibition. complete cardiac [2] [%]	inhibition at 5 µM [2] [%]	inhibition at 50 µM [2] [%]	IC50 [3] [µM]	% inhibition. complete NM2C [3] [%]	inhibition at 5 µM [3] [%]	inhibition at 50 µM [3] [%]	% inhibition at 5 μM (or 10 μM if racemate) Smooth [4] [%]	% inhibition at 50 μM (or 100 μM if racemate) Smooth [4] [%]	% inhibition. complete Smooth [4] [%]	% inhibition at 5 μM (or 10 μM if racemate) Skeletal [5] [%]	% inhibition at 50 μM (or 100 μM if racemate) Skeletal [5] [%]	IC50 [5] [µM]	% inhibition. complete Skeletal [5] [%]	IC50 [6] [µM]	% inhibition. complete Dicty [6] [%]	inhibition at 5 µM [6] [%]	inhibition at 50 µM [6] [%]	further results
COc1ccc(N2CC[C@@]3(O)C(=O)c4ccsc4N=C23)cn1 [Compound 219, (9S)-9-Hydroxy-12-(6-methoxypyridin-3-yl)-4-thia-2,12-diazatricyclo[7.3.0.0^3,7]dodeca-1,3(7),5-trien-8-one]	6.9	4.1	84	44	78	8.1	21	8	18	15	32	36	69	91	1.8	94	43	100	6	56	Inhibition (%) cardiac ([2]; maximum inhibition, compounds in IC50 range 3-6 μM): 84%; Inhibition (%) skeletal [5]: 94%
Cc1cc2c(s1)N=C1N(c3ccc(N)cc3)CCC1(O)C2=O (stereo not shown) [Compound 221, 12-(4-Aminophenyl)-9-hydroxy-5-methyl-4-thia-2,12-diazatricyclo[7.3.0.0^3,7]dodeca-1,3(7),5-trien-8-one]	6	0.9	79	65	78	4.1	61	32	56	43	87	97	65	91	1.8	92	11.6	100	27	85	Inhibition (%) NM2C ([3]; maximum inhibition, compounds in IC50 range 1-5 μM): 61%; Inhibition (%) skeletal [5]: 92%
COc1ccc(N2CCC3(O)C(=O)c4cc(C)sc4N=C23)cc1 (stereo not shown) [Compound 222, 9-Hydroxy-12-(4-methoxyphenyl)-5-methyl-4-thia-2,12-diazatricyclo[7.3.0.0^3,7]dodeca-1,3(7),5-trien-8-one]	0.86	0.52	93	82	92	0.76	91	77	89	83	97	98	92	95	0.11	95	4.7	100	49	99	
Cc1cc2c(s1)N=C1N(c3ccc(C#N)cc3)CCC1(O)C2=O (stereo not shown) [Compound 224, 4-{9-Hydroxy-5-methyl-8-oxo-4-thia-2,12-diazatricyclo[7.3.0.0^3,7]dodeca-1,3(7),5-trien-12-yl}benzonitrile]	1.7	1.7	99	72	96	1.2	93	72	91	72	96	99	94	98	0.21	98	2.8	89	64	86	
O=C1c2ccncc2N=C2NCCC12O (stereo not shown) [Compound 255, 3a-Hydroxy-1H,2H,3H,3aH,4H-pyrrolo[2,3-b]1,7-naphthyridin-4-one]	1	1		7	7					3	3	3	6	7	1.7	7	42	33	4	18	Inhibition (%) skeletal [5]: 7%
